Results: patent US7476511B2, “Method of detecting and analyzing paclitaxel-mimetic compounds” (priority 2001, dated 2009)
Like-named read-outs stand apart in the source and are kept apart here.

Tests used:
[1] = tested on: paclitaxel binding site of microtubules; test: Competition test: displacement of Flutax-2 from microtubules, fluorescence anisotropy in microplate; parameters: species or system bovine; settings: for equilibrium binding constant to microtubules (numerical analysis of displacement isotherms) / displacement of Flutax-2 / inhibition of the anisotropy of microtubule Flutax-2: 50 nM Flutax-2/50 nM microtubule sites; for equilibrium binding constant to microtubules (numerical analysis of displacement isotherms): 25° C., mean of several determinations; for equilibrium constant K, best fit of competition isotherm (FIG. 2): GAB-GDP buffer at 25° C., 50 nM Flutax-2, 50 nM sites
Description: Using Flutax-2 as a reference probe for the binding site to paclitaxel, the binding of other non-fluorescent ligands which displace Flutax-2 from the microtubules (see FIG. 1) can easily be measured by the changes in […] fluorescence properties in a competition test. The change of fluorescence anisotropy, which was analysed in 96-well plates with a microplate reader, was used. […] Baccatine III is equivalent to the taxane ring system, in which the group C-13 OH substitutes the paclitaxel side chain (see chemical structures in FIG. 2). The C-13 side chain has previously been considered as an essential determinant for recognition of paclitaxel.
Tubulin from bovine brain was purified and stored, and its concentration was measured as has been described (Andreu, J. M. et al.). Prior to its use it was balanced in 10 mM sodium phosphate, 1 mM EGTA, 0.1 mM GTP, 3.5M glycerol pH 6.8, with a Sephadex G-25 gravity column used cold, and it was centrifuged cold for 10 min at 50,000 in a TLA 100.4 rotor (Beckman) cold. The 50 μM tubulin was made 6 mM in MgCl2 (in other words, glycerol assembly buffer GAB, final pH 6.5) and 1 mM GTP, it was assembled in microtubules at 37° C. and these were gently cross-linked with 20 mM glutaraldehyde, the reaction being stopped with NaBH4 as has been described (Diaz, J. F. et al.). […] The cross-linked microtubules were dialysed against GAB-0.1 mM nucleotide (GTP or GDP) for more than 16 h, cold, in dialysis cassettes (Pierce) and were conserved frozen drop by drop in liquid nitrogen, or at 4° C. with 0.05% of sodium azide. This conservation method for the cross-linked microtubules by means of dialysis against a conservation and cryopreservation buffer is claimed in the present invention.
These competitive measurements were made with the polarisation plate reader. A solution of known concentrations of binding sites of microtubule and Flutax-2, both close to 50 nM, in GAB-GDP buffer, was freshly prepared starting from the concentrated reserves of cross-linked microtubules and Flutax-2. It was dispensed in aliquots of 200 μL (final volume) at room temperature in 96-well plates (Costar cat. No. 3599, the wells at the edges were not used). […] The ligands to test were added in small volumes of DMSO (concentration of final DMSO 2% v/v) in order to make the desired duplicated concentrations. A check was also made that the paclitaxel was not adsorbed onto the plate during the test, using ^3H-paclitaxel and a scintillation counter. The wells without protein and without Flutax-2 were included for calibration and background measurements respectively (see anisotropy measurements, above). The plates were stirred by rotation for 10 minutes and were measured twice within 30-90 minutes following balancing at 25° C. in the microplate reader. The anisotropy data of Flutax-2 was calculated with the evaluation software (BMG) and was traced against the total concentration of the competitor.
With the aim of measuring the binding affinity of a ligand (L) which displaces the reference ligand Flutax-2 from its microtubule binding site (S), unitary stoichiometry was assumed, with the fractional binding of Flutax-2 starting from the anisotropy being determined as [F]b/[S]0=[F]0(r−rmin)/[S]0(rmax−rmin) and the following expressions were applied K(F)=[SF]/[S] [F] [9] K(B)=[SB]/[S] [B] [10] [F]=[F]0−[SF] [11] [L]=[L]0−[SL] [12]

[2] = Description: Standard concentrated solutions were prepared and were kept at −20° C. in a dry atmosphere. The paclitaxel (from the National Cancer Institute, Bethesda, Md.) was measured spectroscopically at 273 nm following dilution in methanol, using an extinction coefficient of 1,700 M^−1 cm^−1 (Diaz, J. F. and Andreu, J. M.) ^3H-paclitaxel (4 Ci mmol^−1) was obtained from Moravek Biochemicals (Brea, Calif.), Docetaxel (Taxotere) was supplied by Rhône-Poulenc Rorer (Antony, France). […] The methyl ester of the C-13 side chain of paclitaxel was supplied by E. Baloglu and D. G. I. Kingston of the Virginia Polytechnic Institute (Blacksburg, Va.).
[3] = tested on: paclitaxel binding site of microtubules; test: Binding of Flutax-2 to cross-linked microtubules by fluorescence anisotropy; parameters: species or system bovine
Description: The intensity of fluorescence of Flutax-2 changes very little with the binding to microtubules. There is a small change in the excitation maximum from 494 nm to 495 nm (isosbestic point at 500 nm ) and a blue shift in emission from 523 nm to 520 nm (not shown here; isosbestic point at 525 nm; Diaz, J. F. et al.). […] The excitation anisotropy spectrum of a 50 nM solution of microtubule sites/Flutax-2 was compared with the spectrum of a similar solution in which the binding sites were blocked by an excess of paclitaxel and of free Flutax-2. […] The anisotropy values determined for the 495 nm band (emission 520 nm; GAB buffer containing glycerol, 25° C.) were: free Flutax-2 (50 nm ), rmin=0.055; in the presence of microtubules blocked with paclitaxel, r=0.060; Flutax-2 specifically bound to the microtubules, rmax=0.29 (the last was determined by valuation of 50 nm Flutax-2 with growing concentrations of microtubules). These changes are consistent with a strong immobilisation of the fluorophore by the binding. […]
Tubulin from bovine brain was purified and stored, and its concentration was measured as has been described (Andreu, J. M. et al.). […]
Fluorescence spectra were obtained corrected with a Fluorolog-3-221 photon count instrument (Jobin Yvon-Spex, Longlumean, France), with an emission bandwidth of 5 nm and excitation of […] at 25° C. […] The multiple measurements of anisotropy were made with a PolarStar microplate reader (BMG Labtechnologies, Offenburg, Germany) at 25° C. The solutions were excited with 200 pulses of vertically polarised light (band-pass filter 485-P, 480-492 nm ) and the emission was simultaneously analysed with vertical and horizontal polarisation filters (band-pass 520-P, 515-550 nm ). […] The values of well blanks with microtubules and without Flutex-2 were subtracted from the values of fluorescence intensity (the blanks typically represented less than 4% of the measurement). […]

[4] = tested on: cross-linked microtubules; test: Concentration of taxoid binding sites by sedimentation and spectrophotometric measurement of Flutax-2; parameters: species or system bovine; settings: 5 μM Flutax-2, GAB-GDP buffer, 25° C.
Description: Their concentration of total tubulin was measured after diluting them in 1% SDS using an extinction coefficient of 107,000 M^−1 cm^−1 at 275 nm (Diaz, J. F. and Andreu, J. M.). […] The concentration of binding sites of taxoid was determined by addition of growing concentrations of microtubules cross-linked to 5 μM Flutax-2 in the GAB-GDP buffer, sedimentation (Diaz, J. F. et al., 50,000 rpm in a Beckman TLA 120 rotor at 25° C.) and spectrophotometric measurement of Flutax-2. It was observed that the preparations of cross-linked microtubules bound 0.75±0.05 of Flutax-2 per total tubulin (in other words, a minimum of 95% of the bound tubulin was active binding this ligand). The control measurements using ^3H-paclitaxel and liquid scintillation gave values similar to Flutax-2. Once the anisotropy values of Flutax bound to microtubule and free were determined, the number of sites could also be determined by valuation of diluted solutions of microtubules cross-linked with Flutax-2 (see further below). The concentration of binding sites of taxoids of the preparations of cross-linked microtubules turned out to be stable in liquid nitrogen, decaying at speeds between 0.02 and 0.05 day^−1 at 4° C. (mean lives of five and two weeks respectively). The cross-linked microtubules were used within one average life starting from the preparation.

[5] = tested on: paclitaxel binding site of microtubules; test: Displacement of 3H-paclitaxel from microtubules by sedimentation and scintillation count; settings: 1 mg mL^−1 bovine serum albumin present
Excerpt: In a series of control measurements, the displacement of the interaction of ^3H-paclitaxel with microtubules by baccatine III and Flutax-2 was evidenced by sedimentation and scintillation count. […] This confirmed that baccatine III is recognised by the paclitaxel binding site of microtubules. Nevertheless, with the aim of having the majority of the radioactive ^3H-paclitaxel tracer in solution, instead of being absorbed into the polycarbonate tube of the table-top ultracentrifuge, it was necessary to include 1 mg mL^−1 of bovine serum albumin, which binds the paclitaxel (keeping it available for interaction with the microtubules) and also the Flutax-2 (decreasing its apparent affinity). These adsorption processes make it impossible to have any direct rigorous measurement of the affinity of the binding of paclitaxel to microtubules in our hands, and therefore of the affinity of its competitors using paclitaxel as a reference ligand in these diluted tests. The additional disadvantages of the binding tests of ^3H-paclitaxel in comparison with the homogeneous test of the anisotropy of fluorescent taxoid are the operations of centrifugation, separation and radioactive measurement that are required. […]

With `CC(=O)O[C@@]12CO[C@@H]1C[C@H](O)[C@@]1(C)C(=O)[C@H](O)C3=C(C)[C@@H](OC(=O)[C@H](O)[C@@H](NC(=O)OC(C)(C)C)c4ccccc4)C[C@@](O)([C@@H](OC(=O)c4ccccc4)[C@H]21)C3(C)C` [docetaxel, Docetaxel] as the compound, how does the “equilibrium binding constant to microtubules (numerical analysis of displacement isotherms)” value [1] read?
The value was “(6.0±2.3)×10^7 M^−1”.

And the “equilibrium constant K, best fit of competition isotherm (FIG. 2)” value [1]?
Its value is 8e+07 M⁻¹.

And the “ratio of affinities of docetaxel to paclitaxel” value ([1]; on the basis of the individual experiments)?
Its value is 2.7±0.3.

Which “displacement of Flutax-2 / inhibition of the anisotropy of microtubule Flutax-2” value [1] does the source give for `CC(=O)O[C@H]1C(=O)[C@@]2(C)[C@H]([C@H](OC(=O)c3ccccc3)[C@]3(O)C[C@H](O)C(C)=C1C3(C)C)[C@]1(OC(C)=O)CO[C@@H]1C[C@@H]2O` [baccatine III, Baccatine III] here?
The value was “entirely inhibited”.

What about the “equilibrium binding constant to microtubules (numerical analysis of displacement isotherms)” value [1] of the same compound?
The value was 1.5±0.5)×10^5 M^−1.

And the “equilibrium constant K, best fit of competition isotherm (FIG. 2)” value [1]?
Its value is 150000 M⁻¹.

And the “total concentrations needed for inhibition relative to paclitaxel” value ([1]; entire inhibition of anisotropy)?
Its value is “approximately 200 times”.

What about the “solubility” value ([2]; pH 6.5) of the same compound?
Its value is “soluble at the concentrations used”.

Which results are given for `CC(=O)O[C@H]1C(=O)[C@@]2(C)[C@H]([C@H](OC(=O)c3ccccc3)[C@]3(O)C[C@H](OC(=O)[C@H](O)[C@@H](NC(=O)c4ccccc4)c4ccccc4)C(C)=C1C3(C)C)[C@]1(OC(C)=O)CO[C@@H]1C[C@@H]2O` [paclitaxel]?
equilibrium binding constant to microtubules (numerical analysis of displacement isotherms) [1]: (3.7±1.5)×10^7 M^−1; equilibrium constant K, best fit of competition isotherm (FIG. 2) [1]: 3.2e+07 M⁻¹; cancellation of the binding of Flutax-2 to microtubules ([3]; 10 μM paclitaxel): entirely annulled

For `CC(=O)O[C@H]1C(=O)[C@]2(C)[C@@H](OC(=O)[C@H](C)NC(=O)c3ccc4c(c3)C(=O)OC43c4cc(F)c(O)cc4Oc4cc(O)c(F)cc43)C[C@H]3OC[C@@]3(OC(C)=O)[C@H]2[C@H](OC(=O)c2ccccc2)[C@]2(O)C[C@H](OC(=O)[C@H](O)[C@@H](NC(=O)c3ccccc3)c3ccccc3)C(C)=C1C2(C)C` [Flutax-2, 7-O-[N-(2,7-difluoro-4′-fluoresceincarbonyl)-L-alanyl]paclitaxel], which “equilibrium binding constant of Flutax-2 (FIG. 2 legend)” value ([3]; GAB-GDP buffer at 25° C.) is on record?
Its value is 1.5e+08 M⁻¹.

What about the equilibrium constant of the binding Kb (binding isotherm from change of anisotropy) ([3]; GAB-GDP buffer at 25° C.) of the same compound?
Its equilibrium constant of the binding Kb (binding isotherm from change of anisotropy) is 1.15e+08 M⁻¹.

And the “Flutax-2 bound per total tubulin” value [4]?
Its value is 0.75±0.05.

And the “apparent affinity compared with fluorescence anisotropy tests” value [5]?
The value was “seven times lower”.

For `COC(=O)C(O)C(NC(=O)c1ccccc1)c1ccccc1` (stereo not shown) [methyl ester of the C-13 side chain, methyl ester of the C-13 side chain of paclitaxel], which “displacement of Flutax-2 / inhibition of the anisotropy of microtubule Flutax-2” value [1] is on record?
The value was “inactive”.

What about the “equilibrium binding constant to microtubules (numerical analysis of displacement isotherms)” value [1] of the same compound?
Its value is < 10^3 M^−1.

What about the “K of simulated low affinity binding (line through data, FIG. 2)” value ([1]; simulation, data similar to controls) of the same compound?
The value was 700 M⁻¹.

And the solubility [2]?
Its solubility is ≥ 750 µM.
